Laboratory results published in US20100022637A1, “IDENTIFICATION OF ANTI-CANCER COMPOUNDS AND COMPOUNDS FOR TREATING HUNTINGTON'S DISEASE AND METHODS OF TREATMENT THEREOF” (THE TRUSTEES OF COLUMBIA UNIVERSITY IN THE CITY OF NEW YORK, priority 2005, published 2010).
≈ marks a conversion by molar mass, not a printed value. Values belong to the compound of their own block, whether it stands above or below them.

How the values were obtained:
parental ST14A cells = experiment: Cell death rescue in parental cells (selectivity counter screen); type: cell-based, rat; settings: in words
Description: Cell death is indicated by a decrease in fluorescence. […] (with 5% CO2).
Identification of selective inhibitors of mutant-htt toxicity: As a first step towards probing mechanisms of action of these compounds, it was tested whether compounds selectively targeted pathways that are perturbed by mutant htt or if they suppressed a general death mechanism. Caspase activation was tested to see if it contributed to cell death in this model, since caspase-dependent pathways have been broadly implicated in cell death and in HD (Thornberry, N. and Y. Lazebnik, Science 1998, 281:1312-6; Sanchez Mejia, R and R. Friedlander Neuroscientist 2001, 7: 480-9; Hickey M. and M. Chesselet, Prog Neuropsychopharmacol Biol Psych 2003, 27: 255-65). Caspase activation was monitored via measuring the cleavage of specific fluorogenic caspase substrates. […] The decreased caspase activation in WT N548 cells was consistent with relative protection of these cells from cell death. […] Thus, the ability of a compound to rescue cell death in ST14A cells could be used as a selectivity filter to differentiate compounds that were selective for pathways selective for mutant htt induced cell death. The selectivity of rescue by a compound was determined by assessing rescue of cell death in parental ST14A cells. […]

caspases = experiment: Caspase assay (fluorogenic AFC substrates); type: cell-based, rat; settings: 50 μM; ST14A and N548 mutant cells, serum deprivation 39° C.
Description: Caspase activity was measured using a fluorogenic assay (Biovision Inc. CA), based on cleavage of AFC (7-amino-4-trifluoromethyl coumarin) from specific AFC-conjugated peptide substrates by activated caspases. Each cell line was seeded at 10^6 cells/plate, incubated overnight at 33° C., and then incubated for 6 h at 39° C. in 0.5% IFS containing medium with or without BOC-D-fmk (50 μM). Four plates/sample were harvested in lysis buffer provided by the manufacturer. Peptide substrates were added to the cell lysate or to lysis buffer (control), incubated at 37° C. for 2 h, and fluorescence (ex 355/em 510 nm) measured on a plate reader (Perkin Elmer Victor^3). Fluorescence intensities of controls were subtracted from sample intensity and the resulting value normalized to protein in each sample (Bradford Assay from BioRad; Hercules, Calif.).

N548 mutant cells = experiment: in vitro; settings: for Activity: scale not defined; for selectivity profile of cell death rescue in panel of htt expressing cell lines: N63, N548, FL htt cell lines
RKO cells [1] = experiment: Flow cytometry cell cycle distribution, RKO; type: cell-based, human; settings: 24 h, propidium iodide
Description: (§1) RKO, RKO-E6 or HeLa cells were seeded in 20-cm dishes in 10 ml of growth medium. Cells were allowed to adhere and then treated with the selected compounds for 24 h. The treated cells were collected, washed 2× with PBS and counted. The cell pellet was re-suspended in 500 μl of ice cold PBS and 2-5 ml of cold 70% ethanol (−20° C.) were added. Cells were fixed for 1 h or overnight. 5-10 million cells were placed into a 15-ml conical tube and centrifuged at 1000 g. Cells were washed 2× with 1% calf serum in PBS. Cells were resuspended in 800 μl of 1% calf serum in PBS and 100 μl of Rnase (1 mg/ml) and 100 μl of propidium iodide (400 μg/ml) added. Cells were incubated at 37° C. for 30 min and then analyzed on flow cytometer.

RKO-E6 cells [2] = experiment: Alamar Blue viability assay, RKO-E6; type: cell-based, human; settings: for effect on doxorubicin's lethality in RKO-E6 cells: co-treatment with 0.5 μg/ml doxorubicin, 24 h
Description: (§2) RKO colon carcinoma, human (ATCC, order # CRL-2577), RKO-E6 colon carcinoma transfected with HPV E6 inserted in pCMV.3 (ATCC, order # CRL-2578) were grown in MEM with 2 mM L-glutamine and Earle's BBS adjusted to contain 1.5 g/L NaHCO3, 0.1 mM non-essential amino acids and 1.0 mM sodium pyruvate, and supplemented with 10% fetal bovine serum, penicillin and streptomycin (pen/strep). Both cell lines were incubated at 37° C. in a humidified incubator containing 5% CO2.
The Alamar Blue assay incorporates a fluorimetric/colorimetric growth indicator that changes color in the response to chemical reduction by viable cells (Nociari 1998). Cells were seeded at a density of 3,000 cells (57 μl) per well in a 384-well black, clear-bottom plates using a syringe bulk dispenser (Zymark Sciclone ALH). Three microliters were removed from a compound daughter plate using a 384 fixed cannula head and added to the assay plate, making the final concentration 4 μg/ml. The plates were incubated for 24 h at 37° C. 10 μl of 40% Alamar Blue (Biosource Int., cat #DAL1100) solution in media was added to each well (1:10 dilution). The assay plates were incubated for 16h. Fluorescence intensity was determined using a Packard Fusion platereader with a 535 nm excitation filter and a 590 nm emission filter. The average fluorescence for the whole plate was used as a positive control. Average percentage inhibition for each well was determined using our freely available SLIMS software (Kelley et al., 2004).
The daughter plates for the 2-fold dilution series were prepared with a Zymark Sciclone ALH by diluting the replica daughter plates to obtain compound concentrations from 8 μg/ml-0.008 μg/ml (columns 8-18). Columns 1-7 were used as untreated control. RKO-E6 cells were seeded at the density of 3,000 per well in 55 μl, and 5 μl were added from the daughter plate. RKO cells were seeded at the density of 2,000 per well in 55 μl, and 5 μl were added from the daughter plate. The assay was incubated for 24 h at 37° C. 10% Alamar Blue was added to each well and the assay was incubated for 16 h (see above). Compounds for retesting were purchased from the manufacturers or from Sigma-Aldrich (see above). Stocks were prepared in DMSO at 4 mg/ml.
(§3) Each cell line (RKO, RKO-E6, HeLa and TC32) was treated with a dose combination matrix of doxorubicin and a selected hit compound. Each treatment was done in a triplicate in 384-well format. The average percent inhibition of cell proliferation, measured with Alamar Blue, was determined using the following formula: […]

[3] = tested on: HeLa, TC32, A673, BJELR cells; experiment: Alamar Blue viability assay, other cancer cell lines; type: cell-based; settings: TC32 (A673 for T55D7)
Description: as §3

p53 = experiment: Western blot of p53 (p21, MDM2) levels; type: cell-based, human; settings: RKO-E6 cells; in words
Description: Protein content was quantified using a BioRad protein assay reagent (BioRad, cat #500-0006). Equal amounts of protein were resolved on SDS-polyacrylamide gels. Proteins were transferred onto a PVDF membrane, blocked with 5% milk, and incubated with the appropriate primary and secondary antibodies. […] To test for equivalent loading in each lane, blots were stripped, blocked and probed with an anti-eIF-4E antibody.

RKO-E6 cells [4] = experiment: Flow cytometry cell cycle distribution, RKO-E6; type: cell-based, human; settings: 24 h, propidium iodide
Description: as §1

RKO cells [5] = experiment: Alamar Blue viability assay, RKO; type: cell-based, human; settings: in words
Description: as §2
The Alamar Blue assay incorporates a fluorimetric/colorimetric growth indicator that changes color in the response to chemical reduction by viable cells (Nociari 1998). Cells were seeded at a density of 3,000 cells (57 μl) per well in a 384-well black, clear-bottom plates using a syringe bulk dispenser (Zymark Sciclone ALH). […] Fluorescence intensity was determined using a Packard Fusion platereader with a 535 nm excitation filter and a 590 nm emission filter. The average fluorescence for the whole plate was used as a positive control. Average percentage inhibition for each well was determined using our freely available SLIMS software (Kelley et al., 2004). […]
Each cell line (RKO, RKO-E6, HeLa and TC32) was treated with a dose combination matrix of doxorubicin and a selected hit compound. […] The average percent inhibition of cell proliferation, measured with Alamar Blue, was determined using the following formula: […]

in vitro = settings: rat
N2 worms = settings: 6 mM; cited from earlier work
topoisomerase IIα = experiment: Western blot of topoisomerase IIα level; type: cell-based, human; settings: RKO and/or RKO-E6 cells; in words
Source text: Antibodies were obtained form the following suppliers: p53 (Oncogene/Calbiochem, cat #OP43), p21 (Santa Cruz Biotechnology inc., cat #sc-817), MDM2 (Santa Cruz Biotechnology Inc., cat #sc-965), Topoisomerase IIα (TopoGEN, cat #2011-1), Topoisomerase I (BD PharMingen, cat #556597), Cyclin B (BD Transduction Laboratories, cat #610219), Cyclin A (BD Transduction Laboratories, cat #611268), Anti-Fluorescein-HRP (Molecular Probes, cat #A21253), Anti-biotin-HRP (Cell Signaling Technology, cat #7075, Jackson ImmunoResearch Laboratories, cat #200-032-096), eIF4E (Santa Cruz Biotechnology Inc., cat #sc-9976 HRP).
Cells were lysed in denaturing lysis buffer (50 mM HEPES KOH [pH 7.4], 40 mM NaCl, 2 mM EDTA, 1.5 mM Na3VO4, 50 mM NaF, 10 mM sodium pyrophosphate, 10 mM sodium β-glycerophosphate, 0.5% Triton X-100, and protease inhibitor tablet [Roche, cat #11777700]). Protein content was quantified using a BioRad protein assay reagent (BioRad, cat #500-0006). Equal amounts of protein were resolved on SDS-polyacrylamide gels. Proteins were transferred onto a PVDF membrane, blocked with 5% milk, and incubated with the appropriate primary and secondary antibodies. […]

[6] = tested on: PC12 expressing Q103 exon 1 htt; experiment: PC12 HD model, Alamar Blue viability; type: cell-based
Description: For enhanced stability the repeat portion consists of alternating CAG/CAA repeats. […] Mutant (mut) htt was induced by the ecdysone receptor agonist, tebufenozide.
For the PC12 assay, 7500 cells/well were plated in 384-well plates in 57 μl of PC12 medium with tebufenozide (1 μM). Compounds (3 μl) from daughter plates were added to the cells and incubated at 37° C. After 48 h, 20 μl of 40% Alamar Blue (Biosource, CA) in PC12 media was added per well and cells incubated for 12 h at 37° C. […] Fluorescence intensity was determined using a Packard Fusion plate reader with an excitation filter centered on 535 nm and an emission filter centered on 590 nm. Average percentage inhibition at each concentration was calculated.

SMILES: COC(=O)CC(NC(=O)OC(C)(C)C)C(=O)CF [BOC-D-fmk, reference compound]
rescue of cell death in parental ST14A cells (parental ST14A cells): rescued cell death | caspase activation (caspases): prevented caspase activation | rescue of cell death in mutant N548 cells (N548 mutant cells; in words): rescued cell death | EC50 (N548 mutant cells; nonselective hits (rescue also parental ST14A), 0.5% IFS, 39° C., 3 d): 25 µM | TC50 (N548 mutant cells; nonselective hits, maximum concentration tested 80 μM): ND(80) | Activity (N548 mutant cells; nonselective hits): 3

SMILES: S=C1N(CN2CCOCC2)CCN1CN1CCOCC1 [Compound T55D7, 1,3-bis(4-morpholinylmethyl)-2-imidazolidinethione]
cell cycle effect in RKO cells (RKO cells [1]): virtually no changes in the cell cycle | concentrations with doxorubicin-independent lethality (RKO-E6 cells [2]; absence of doxorubicin): 30 to 100 µM | effect on doxorubicin's lethality in RKO-E6 cells (RKO-E6 cells [2]; in words): increase both doxorubicin's and camptothecin's lethality | effect on camptothecin's lethality (RKO-E6 cells [2]; co-treatment with camptothecin, in words): increase both doxorubicin's and camptothecin's lethality | effect on podophyllotoxin's lethality (RKO-E6 cells [2]; co-treatment with podophyllotoxin, in words): did not increase the microtubule inhibitor podophylotoxin's lethality | Bliss Independence analysis of combination with doxorubicin (RKO-E6 cells [2]; combination dose matrix): exceeded Bliss Independence with doxorubicin at multiple doses | effect on doxorubicin's potency in other cell lines [3]: upregulated doxorubicin's potency in other cell lines | p53, p21, MDM2 levels (p53): did not change p53 concentration | cell cycle effect in RKO-E6 cells (RKO-E6 cells [4]): pronounced S-phase arrest | effect on doxorubicin's lethality in RKO cells (RKO cells [5]): increase both doxorubicin's and camptothecin's lethality

EC50 (N548 mutant cells; Rattus norvegicus, ST14A, 72 h): 5 µM
SMILES: O=C(O)c1ccccc1Nc1cccc(C(F)(F)F)c1 [Flufenamic Acid, reference compound]
CC50 at 3 days (in vitro; ST14A striatal cells expressing N548 mutant human htt): 40 µM | Activity (N548 mutant cells; nonselective hits): 1.5

SMILES: CC[n+]1c(-c2ccccc2)c2cc(N)ccc2c2ccc(N)cc21 [Homidium Bromide, reference compound]
CC50 (in vitro): 15 µM | EC50 (N548 mutant cells; Rattus norvegicus, ST14A, 72 h): 10 µM | Activity (N548 mutant cells; nonselective hits): 1.5

SMILES: C[n+]1ccc(-c2cc[n+](C)cc2)cc1 [Paraquat]
toxicity in worms (N2 worms): toxic

SMILES: C[C@@H]1C[C@@H]([C@H](O)CC2CC(=O)NC(=O)C2)C(=O)[C@@H](C)C1 [cycloheximide]
effect on doxorubicin's lethality in RKO-E6 cells (RKO-E6 cells [2]; in words): potentiated doxorubicin's lethality | p53, p21, MDM2 levels (p53): caused a disappearance of p53 and p21 | topoisomerase IIα levels (topoisomerase IIα): caused increased topoisomerase IIα levels

SMILES: CCCCCCCCCC(=O)Oc1cc(-c2ccccc2)nn1-c1cccc(F)c1 [revertin-1c]
rescue of cell death in parental ST14A cells (parental ST14A cells): not in parental ST14A cells | EC50 ([6]; Rattus norvegicus, PC-12, unit inferred): 40 µg/mL (≈ 97.9 µM) | PC12 rescue: percent increase in viability in compound treated cells above DMSO treated ([6]; — = no activity in the assay (footnote n.a.)): 23% | selectivity profile of cell death rescue in panel of htt expressing cell lines (N548 mutant cells; in words): selectively rescued cell death in all mutant htt-expressing cell lines | selectivity profile of cell death rescue in panel of htt expressing cell lines (N548 mutant cells; in words, listed as Rev-1c): selectively rescues cell death in three mutant htt expressing cell lines | maximal fold induction (N548 mutant cells; Rattus norvegicus, 72 h, read-out: N548 Mut: Max, maximum rescue expressed as fold over DMSO treated N548 mutant cells): 2.5 | EC50 (N548 mutant cells; Rattus norvegicus, read-out: EC50 based on activity in N548 mutant cells): 4 µg/mL
